The values that follow come from patent US20250353891A1 (MEDIMMUNE LIMITED, priority 2022, published 2025).

Data set [1] can be described thus: Mouse acute food intake study. The data set is classed as in vivo. The conditions noted are these: male C57Bl/6 mice, s.c., dose 10 nmol/kg, cumulative food intake at 24 hr vs vehicle. The gist of the method:
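Peptide or vehicle went subcutaneously (5 mL/kg) to 6-8 h-fasted male C57Bl/6 mice shortly before the dark phase, with groups balanced on body weight and 24-hour intake. Cumulative food consumption was derived from 48 h of automated BioDaq monitoring with free food and water access.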

Data set [2] in a line: Proteolytic resistance to FasSSIF/Pancreatin. The settings on record: simulated intestinal fluid. The data set is classed as in vitro ADME. The procedure: A fresh suspension of FasSSIF/P (Fasted-State Simulated Intestinal Fluid+USP Pancreatin®) was prepared according to that described by Galia, Nicolaides, Hörter, Löbenberg, Reppas and Dressman: Pharm. Res. 15 (1998) 698-705, and USP XL requirements. The resulting preparation was used immediately without storage.
Peptide for evaluation (1.0 mg) was dissolved in pre-warmed FasSSIF without Pancreatin® (200 μL). To this fresh FasSSIF/Pancreatin® (100 μL) was added to initiate potential proteolysis. Following momentary vortexing of the reaction tube the mixture was incubated at 37° C. in a thermostatic water bath for the duration of the experiment. 25 μL aliquot of the co-incubated peptide-enzyme mixture was periodically withdrawn (t=0, 5, 10 15 and 30 min) and quenched immediately by addition to a solution of 10% TFA in 1:1 water/acetonitrile (75 μL) to arrest proteolytic activity. Quenched samples were centrifuged (7800 RPM, 3 mins) to pellet solids and 10 μL aliquots of the supernatant solution were analyzed using analytical RP-HPLC as follows: Analytical RP-HPLC method: Agilent Polaris C8-A column (4.6×100 mm, 3 micron) eluted with a linear binary gradient of 10-90% MeCN (0.1% TFA v/v) in water (0.1% TFA v/v) over either 10 or 15 mins at 1.5 mL min^−1 at 40° C. with detection by UV absorption at 210 nm. Manual integration (AUC) allowed estimation of remaining intact peptide over the time course of the experiment.

The target of data set [3] is human GLP-1 receptor (hGLP-1R) (Homo sapiens, UniProt P43220). Description: cAMP production (HTRF) in CHO cells expressing hGLP-1R. The data set is classed as cell-based. On the set-up: expressed in transfected cells. The settings on record: for EC50: Table 6, peptides modified at position 17, cAMP in CHO hGLP-1R cells, geometric mean, read-out: hGLP-1R EC50; for % Relative Potency Ratio: Table 6, % GLP-1R activity relative to GLP-1 / % GlucR activity relative to glucagon. Summed up:
(§1)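 Cells were resuspended in assay buffer at batch-optimized density, typically 1×10^5 cells/mL for hGLP-1R and 2×10^5 cells/mL for hGCGR. After 30 min incubation at room temperature with compound, cAMP was measured by two-step HTRF. EC50 values came from 4-parameter logistic fits of % Delta F.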

The target of data set [4] is human glucagon receptor (hGCGR) (Homo sapiens, UniProt P47871). In words: cAMP production (HTRF) in CHO cells expressing hGCGR. The data set is classed as cell-based. On the set-up: expressed in transfected cells. The settings on record: Table 6, peptides modified at position 17; cAMP in CHO hGCGR cells; geometric mean; read-out: hGluc-R EC50. The gist of the method: as §1
A general note: Changes in cAMP serve as a functional read-out for many G protein-coupled receptors.

Molecules are shown by their SMILES. Starred links: 1 amine or outer side, 2 acyl side, 3 side chain; linkers in the order of their positions; H or OH if unused. Non-standard residues stand in square brackets, D forms with d. Residues, ends and D or L forms follow the SMILES beside them. Groups on a side chain read outwards from the residue. *: point of attachment. Dip = N[C@H](C(=O)O)C(c1ccccc1)c1ccccc1; γGlu = O=C(O)[C@H](CCC(=O)[*:2])N[*:1]; Stearoyl = CCCCCCCCCCCCCCCCCC(=O)*; αMeF = C[C@](N)(Cc1ccccc1)C(=O)O; PEG2 = NCCOCCOCCC(=O)O; Aib = CC(C)(N)C(=O)O

Sequence of human GLP-1 receptor (hGLP-1R) (P43220 24-463): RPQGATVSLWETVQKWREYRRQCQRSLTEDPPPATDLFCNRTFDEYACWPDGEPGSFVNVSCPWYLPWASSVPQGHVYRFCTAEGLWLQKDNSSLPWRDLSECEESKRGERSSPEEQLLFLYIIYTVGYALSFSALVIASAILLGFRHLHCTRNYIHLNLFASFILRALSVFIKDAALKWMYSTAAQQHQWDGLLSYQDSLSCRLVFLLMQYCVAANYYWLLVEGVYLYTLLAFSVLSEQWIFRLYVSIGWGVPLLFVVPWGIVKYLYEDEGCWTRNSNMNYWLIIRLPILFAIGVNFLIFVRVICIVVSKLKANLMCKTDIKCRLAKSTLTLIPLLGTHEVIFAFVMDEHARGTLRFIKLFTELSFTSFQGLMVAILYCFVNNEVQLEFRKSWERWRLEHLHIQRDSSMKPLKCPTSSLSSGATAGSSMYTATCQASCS
Sequence of human glucagon receptor (hGCGR) (P47871 26-477): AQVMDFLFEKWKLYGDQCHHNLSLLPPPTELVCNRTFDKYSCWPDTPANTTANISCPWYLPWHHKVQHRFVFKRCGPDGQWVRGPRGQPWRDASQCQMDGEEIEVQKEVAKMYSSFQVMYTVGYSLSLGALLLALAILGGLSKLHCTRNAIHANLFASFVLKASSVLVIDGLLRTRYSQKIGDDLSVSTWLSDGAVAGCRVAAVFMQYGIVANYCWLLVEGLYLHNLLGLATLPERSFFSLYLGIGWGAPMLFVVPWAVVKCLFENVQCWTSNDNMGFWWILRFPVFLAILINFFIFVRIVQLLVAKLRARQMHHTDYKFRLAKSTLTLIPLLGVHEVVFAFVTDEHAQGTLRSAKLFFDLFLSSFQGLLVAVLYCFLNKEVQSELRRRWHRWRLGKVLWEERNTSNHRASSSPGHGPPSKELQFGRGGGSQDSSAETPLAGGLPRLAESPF

For the compound `CCCCCCCCCCCCCCCCCC(=O)N[C@@H](CCC(=O)N[C@@H](CCC(=O)NCCOCCOCCC(=O)NCCOCCOCCC(=O)NCCCC[C@H](NC(=O)[C@H](CO)NC(=O)[C@H](CC(=O)O)NC(=O)[C@H](CC(C)C)NC(=O)[C@@H](NC(=O)[C@H](CCCCN)NC(=O)[C@H](CO)NC(=O)[C@@H](NC(=O)[C@H](CC(=O)O)NC(=O)[C@H](CO)NC(=O)[C@@H](NC(=O)[C@](C)(Cc1ccccc1)NC(=O)[C@H](CO)NC(=O)CNC(=O)[C@H](CCC(N)=O)NC(=O)[C@H](CO)NC(=O)[C@@H](N)Cc1c[nH]cn1)[C@@H](C)O)C(C)C)C(c1ccccc1)c1ccccc1)C(=O)N[C@@H](C)C(=O)N[C@@H](C)C(=O)N[C@@H](CCC(N)=O)C(=O)N[C@@H](CC(=O)O)C(=O)N[C@@](C)(Cc1ccccc1)C(=O)N[C@H](C(=O)N[C@@H](CCC(=O)O)C(=O)NC(C)(C)C(=O)N[C@@H](CC(C)C)C(=O)N[C@@H](C)C(=O)N[C@@H](CC(N)=O)C(=O)N[C@H](C(N)=O)[C@@H](C)O)C(C)C)C(=O)O)C(=O)O` [Peptide 47] (H-HSQGS[αMeF]TSDVSK[Dip]LDSK([PEG2-PEG2-γGlu-γGlu-Stearoyl])AAQD[αMeF]VE[Aib]LANT-NH2; N-terminus assumed), in data set [1], the “24 hr % Vehicle Food Intake” value was determined as 51.4%. Moreover, in data set [2], the amount remaining (commonly what is left of the initial amount, in per cent) at 5 min, 3.3 mg/mL was 90%; the amount remaining at 10 min, 3.3 mg/mL is 88%; the amount remaining at 0.25 h, 3.3 mg/mL was 83%; the amount remaining at 0.5 h, 3.3 mg/mL is 75%. Moreover, in data set [3], the EC50 (as a rule, the concentration needed to bring the measured effect to its halfway point) was 1.72 pM and the “% Relative Potency Ratio” value came to 2.7. The EC50 in data set [4] was 2.38 pM.

Regarding `CCCCCCCCCCCCCCCCCC(=O)N[C@@H](CCC(=O)N[C@@H](CCC(=O)NCCOCCOCCC(=O)NCCOCCOCCC(=O)NCCCC[C@H](NC(=O)[C@H](CO)NC(=O)[C@H](CC(=O)O)NC(=O)[C@H](CC(C)C)NC(=O)[C@@H](NC(=O)[C@H](CCCCN)NC(=O)[C@H](CO)NC(=O)[C@@H](NC(=O)[C@H](CC(=O)O)NC(=O)[C@H](CO)NC(=O)[C@@H](NC(=O)[C@](C)(Cc1ccccc1)NC(=O)[C@H](CO)NC(=O)CNC(=O)[C@H](CCC(N)=O)NC(=O)[C@H](CO)NC(=O)[C@@H](N)Cc1c[nH]cn1)[C@@H](C)O)C(C)C)C(c1ccccc1)c1ccccc1)C(=O)N[C@@H](C)C(=O)N[C@@H](C)C(=O)N[C@@H](CCC(N)=O)C(=O)N[C@@H](CC(=O)O)C(=O)N[C@@](C)(Cc1ccccc1)C(=O)N[C@H](C(=O)N[C@@H](CCC(=O)O)C(=O)NC(C)(C)C(=O)N[C@H](C(=O)N[C@H](C(=O)N[C@@H](CC(N)=O)C(=O)N[C@H](C(N)=O)[C@@H](C)O)[C@@H](C)CC)[C@@H](C)CC)C(C)C)C(=O)O)C(=O)O` [Peptide 50] (H-HSQGS[αMeF]TSDVSK[Dip]LDSK([PEG2-PEG2-γGlu-γGlu-Stearoyl])AAQD[αMeF]VE[Aib]IINT-NH2), the “24 hr % Vehicle Food Intake” value in data set [1] was 78.5%. Moreover, the fraction remaining at 0.5 h, 3.3 mg/mL in data set [2] is 98%. Also, in data set [3], the concentration giving a half-maximal response (EC50) came out at 4.9 pM and the “% Relative Potency Ratio” value is listed as 3.5. In data set [4], the concentration for a half-maximal effect (EC50) came to 8.74 pM.
